Reference: patent publication US12377084B2, “ERAP1 modulators” (GREY WOLF THERAPEUTICS LIMITED, priority 2019, dated 2025)
pIC50: −log10 of the molar value. Where a name gives a salt, the structure may show the parent alone.

Molecular target: T1, Purified ERAP1(37-941)-10 His (ERAP1) (Homo sapiens, UniProt Q9NZ08)
T1 construct: Purified ERAP1(37-941)-10 His (ERAP1); 10xHis (C)
Experiment: ERAP1 mediated hydrolysis of an amide substrate in a biochemical system (10 mer inhibition assay)
Details: 10-mer substrate, incubated at 23° C. for 1 h; excitation 279 nm, emission 355 nm; read-out: IC50 vs Decapeptide WRVYEKC(Dnp)ALK-acid (where Dnp is Dinitrophenyl maleimide) (10-mer)
Text: This peptide has minimal fluorescence as the N-terminal tryptophan residue's fluorescence is quenched by the dinitrophenol (DNP) residue within the peptide. However, as ERAP1 hydrolyses the N-terminal amide bond and tryptophan is released this internal quenching is lost and the reaction is monitored by the increase in tryptophan fluorescence over the course of the assay. For the purposes of this application this assay is referred to as the “10 mer inhibition assay” and compound potencies are calculated and expressed as IC50 as would be familiar to a person skilled in the art.
Biological Assay 1: ERAP1 Mediated Hydrolysis of an Amide Substrate Measured in a Biochemical System
1× Assay buffer (AB): 25 mM Bis-tris propane, 0.05% w/v
Hydroxypropylmethylcellulose pH 7.75 made with Optima grade water
Decapeptide WRVYEKC(Dnp)ALK-acid (where Dnp is Dinitrophenyl maleimide) (10-mer)
12.5 μL ERAP1 enzyme in 1×AB was combined with 250 nL test compound in DMSO. 12.5 μL of either 240 μM L-AMC in 1×AB or 100 μM 10-mer in 1×AB was added to the reaction and incubated at 23° C. for 1 h. For detection, plates were read at excitation 365 nm and emission 442 nm (L-AMC) or excitation 279 nm and emission 355 nm (10-mer). Compound IC50 was determined using a 4-parameter equation.

T1 sequence (Q9NZ08 37-941): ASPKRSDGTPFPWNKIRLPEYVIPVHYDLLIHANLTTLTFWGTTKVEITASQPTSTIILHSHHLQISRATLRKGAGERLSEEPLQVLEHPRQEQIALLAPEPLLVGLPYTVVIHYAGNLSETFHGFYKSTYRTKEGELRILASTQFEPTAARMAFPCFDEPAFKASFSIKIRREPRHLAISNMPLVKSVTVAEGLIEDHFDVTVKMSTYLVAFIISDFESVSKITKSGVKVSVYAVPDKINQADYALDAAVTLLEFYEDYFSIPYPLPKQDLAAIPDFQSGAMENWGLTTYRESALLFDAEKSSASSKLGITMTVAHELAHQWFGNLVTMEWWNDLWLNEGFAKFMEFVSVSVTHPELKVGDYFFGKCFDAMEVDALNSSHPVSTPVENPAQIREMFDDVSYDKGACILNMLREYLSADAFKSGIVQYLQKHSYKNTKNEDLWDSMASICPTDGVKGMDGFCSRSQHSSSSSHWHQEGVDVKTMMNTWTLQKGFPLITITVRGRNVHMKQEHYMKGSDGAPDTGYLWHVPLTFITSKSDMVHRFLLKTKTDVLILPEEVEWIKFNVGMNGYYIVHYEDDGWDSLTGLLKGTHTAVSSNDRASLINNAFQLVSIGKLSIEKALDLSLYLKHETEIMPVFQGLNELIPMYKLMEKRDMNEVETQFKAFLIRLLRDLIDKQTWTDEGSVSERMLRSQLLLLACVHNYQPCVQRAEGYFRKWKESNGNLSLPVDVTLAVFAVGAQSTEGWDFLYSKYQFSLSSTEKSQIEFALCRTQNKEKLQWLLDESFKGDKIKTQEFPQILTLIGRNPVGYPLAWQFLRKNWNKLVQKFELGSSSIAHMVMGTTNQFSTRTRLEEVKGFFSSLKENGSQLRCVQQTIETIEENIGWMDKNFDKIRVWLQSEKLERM

| pIC50 | Structure (SMILES) |
| --- | --- |
| > 7.00 | O=C(O)c1ccc(C2CC2)c(S(=O)(=O)Nc2cc(C(F)(F)F)ccc2C2CCCCN2)c1 (single isomer, unassigned; enantiomer 1) [Example 29, 4-cyclopropyl-3-(N-(2-(piperidin-2-yl)-5-(trifluoromethyl)phenyl)sulfamoyl)benzoic Acid Enantiomer 1] |
| > 7.00 | O=C(O)c1ccc(C2CC2)c(S(=O)(=O)Nc2cc(C(F)(F)F)ccc2C2CCCCN2)c1 (single isomer, unassigned; enantiomer 2) [Example 30, 4-cyclopropyl-3-(N-(2-(piperidin-2-yl)-5-(trifluoromethyl)phenyl)sulfamoyl)benzoic Acid Enantiomer 2] |
| < 6.30 | COc1ccc(C(=O)O)cc1S(=O)(=O)Nc1cc(C(F)(F)F)ccc1C1CCCN(C)C1 (stereo not shown) [Example 1, 4-methoxy-3-(N-(2-(1-methylpiperidin-3-yl)-5-(trifluoromethyl)phenyl)sulfamoyl)benzoic Acid] |
| 6.30 to 7.00 | COc1ccc(C(=O)O)cc1S(=O)(=O)Nc1cc(C(F)(F)F)ccc1C1CCCNC1 (stereo not shown) [Example 2, 4-methoxy-3-(N-(2-(piperidin-3-yl)-5-(trifluoromethyl)phenyl)sulfamoyl)benzoic Acid Hydrochloride] |
| > 7.00 | CCc1ccc(C(=O)O)cc1S(=O)(=O)Nc1cc(C(F)(F)F)ccc1C1CCCNC1 (stereo not shown) [Example 3, 4-ethyl-3-(N-(2-(piperidin-3-yl)-5-(trifluoromethyl)phenyl)sulfamoyl)benzoic Acid Hydrochloride] |
| > 7.00 | CCc1ccc(C(=O)O)cc1S(=O)(=O)Nc1cc(-n2cnnn2)ccc1C1CCCCC1 [Example 4, 3-(N-(2-cyclohexyl-5-(tetrazol-1-yl)phenyl)sulfamoyl)-4-ethylbenzoic Acid] |
| 6.30 to 7.00 | CCc1ccc(C(=O)O)cc1S(=O)(=O)Nc1cc(C(F)(F)F)ccc1C1CCCN1 (stereo not shown) [Example 5, 4-ethyl-3-(N-(2-(pyrrolidin-2-yl)-5-(trifluoromethyl)phenyl)sulfamoyl)benzoic Acid] |
| 6.30 to 7.00 | CCc1ccc(C(=O)O)cc1S(=O)(=O)Nc1cc(C(F)(F)F)ccc1C1CCCN1C (stereo not shown) [Example 6, 4-ethyl-3-(N-(2-(1-methylpyrrolidin-2-yl)-5-(trifluoromethyl)phenyl)sulfamoyl)benzoic] |
| > 7.00 | CCc1ccc(C(=O)O)cc1S(=O)(=O)Nc1cc(C(F)(F)F)ccc1C1CCNC1 (stereo not shown) [Example 7, 4-ethyl-3-(N-(2-(pyrrolidin-3-yl)-5-(trifluoromethyl)phenyl)sulfamoyl)benzoic Acid] |
| > 7.00 | CCc1ccc(C(=O)O)cc1S(=O)(=O)Nc1cc(C(F)(F)F)ccc1C1CCCCN1 (stereo not shown) [Example 8, 4-ethyl-3-(N-(2-(piperidin-2-yl)-5-(trifluoromethyl)phenyl)sulfamoyl)benzoic Acid] |
| > 7.00 | CCc1ccc(C(=O)O)cc1S(=O)(=O)Nc1cc(C(F)(F)F)ccc1C1CCCCC1 [Example 9, 3-(N-(2-cyclohexyl-5-(trifluoromethyl)phenyl)sulfamoyl)-4-ethylbenzoic Acid] |
| > 7.00 | CCc1ccc(C(=O)O)cc1S(=O)(=O)Nc1cc(C(F)(F)F)ccc1C1CCCCN1C (stereo not shown) [Example 10, 4-ethyl-3-(N-(2-(1-methylpiperidin-2-yl)-5-(trifluoromethyl)phenyl)sulfamoyl)benzoic Acid] |
| > 7.00 | CCc1ccc(C(=O)O)cc1S(=O)(=O)Nc1cc(S(C)(=O)=O)ccc1C1CCCCC1 [Example 11, 3-(N-(2-cyclohexyl-5-(methylsulfonyl)phenyl)sulfamoyl)-4-ethylbenzoic Acid] |
| > 7.00 | O=C(O)c1ccc(C2CC2)c(S(=O)(=O)Nc2cc(C(F)(F)F)ccc2C2CCCNC2)c1 (stereo not shown) [Example 12, 4-cyclopropyl-3-(N-(2-(piperidin-3-yl)-5-(trifluoromethyl)phenyl)sulfamoyl)benzoic Acid] |
| > 7.00 | CCc1ccc(C(=O)O)cc1S(=O)(=O)Nc1cc(C#N)ccc1C1CCCCC1 [Example 13, 3-(N-(5-cyano-2-cyclohexylphenyl)sulfamoyl)-4-ethylbenzoic Acid] |
| > 7.00 | CCc1ccc(C(=O)O)cc1S(=O)(=O)Nc1cc(S(C)(=O)=O)ccc1C1CCCNC1 (stereo not shown) [Example 14, 4-ethyl-3-(N-(5-(methylsulfonyl)-2-(piperidin-3-yl)phenyl)sulfamoyl)benzoic Acid] |

| pIC50 | Structure (SMILES) |
| --- | --- |
| > 7.00 | CCc1ccc(C(=O)O)cc1S(=O)(=O)Nc1cc(S(C)(=O)=O)ccc1C1CCCCN1 (stereo not shown) [Example 15, 4-ethyl-3-(N-(5-(methylsulfonyl)-2-(piperidin-2-yl)phenyl)sulfamoyl)benzoic Acid] |
| > 7.00 | O=C(O)c1ccc(C2CC2)c(S(=O)(=O)Nc2cc(C(F)(F)F)ccc2C2CCCCN2)c1 (stereo not shown) [Example 16, 4-cyclopropyl-3-(N-(2-(piperidin-2-yl)-5-(trifluoromethyl)phenyl)sulfamoyl)benzoic Acid] |
| > 7.00 | CS(=O)(=O)c1ccc(C2CCCCC2)c(NS(=O)(=O)c2cc(C(=O)O)ccc2C2CC2)c1 [Example 17, 3-(N-(2-cyclohexyl-5-(methylsulfonyl)phenyl)sulfamoyl)-4-cyclopropylbenzoic Acid] |
| > 7.00 | N#Cc1ccc(C2CCCCC2)c(NS(=O)(=O)c2cc(C(=O)O)ccc2C2CC2)c1 [Example 18, 3-(N-(5-cyano-2-cyclohexylphenyl)sulfamoyl)-4-cyclopropylbenzoic Acid] |
| > 7.00 | N#Cc1ccc(C2CCCCN2)c(NS(=O)(=O)c2cc(C(=O)O)ccc2C2CC2)c1 (stereo not shown) [Example 19, 3-(N-(5-cyano-2-(piperidin-2-yl)phenyl)sulfamoyl)-4-cyclopropylbenzoic Acid] |
| > 7.00 | CS(=O)(=O)c1ccc(C2CCCCN2)c(NS(=O)(=O)c2cc(C(=O)O)ccc2C2CC2)c1 (stereo not shown) [Example 20, 4-cyclopropyl-3-(N-(5-(methylsulfonyl)-2-(piperidin-2-yl)phenyl)sulfamoyl)benzoic Acid] |
| > 7.00 | N#Cc1cc(NS(=O)(=O)c2cc(C(=O)O)ccc2C2CC2)c(C2CCCCN2)cc1F (stereo not shown) [Example 21, 3-(N-(5-cyano-4-fluoro-2-(piperidin-2-yl)phenyl)sulfamoyl)-4-cyclopropylbenzoic Acid] |
| > 7.00 | N#Cc1cc(NS(=O)(=O)c2cc(C(=O)O)ccc2C2CC2)c(C2CCCCN2)cc1Cl (stereo not shown) [Example 22, 3-(N-(4-chloro-5-cyano-2-(piperidin-2-yl)phenyl)sulfamoyl)-4-cyclopropylbenzoic Acid] |
| > 7.00 | O=C(O)c1ccc(C2CC2)c(S(=O)(=O)Nc2cc(-n3cnnn3)ccc2C2CCCCN2)c1 (stereo not shown) [Example 23, 4-cyclopropyl-3-(N-(2-(piperidin-2-yl)-5-(tetrazol-1-yl)phenyl)sulfamoyl)benzoic Acid] |
| > 7.00 | O=C(O)c1ccc(C2CC2)c(S(=O)(=O)Nc2cc(C(F)(F)F)c(F)cc2C2CCCCN2)c1 (stereo not shown) [Example 24, 4-cyclopropyl-3-(N-(4-fluoro-2-(piperidin-2-yl)-5-(trifluoromethyl)phenyl)sulfamoyl)benzoic Acid] |
| > 7.00 | CS(=O)(=O)c1cc(NS(=O)(=O)c2cc(C(=O)O)ccc2C2CC2)c(C2CCCCN2)cc1F (stereo not shown) [Example 25, 4-cyclopropyl-3-(N-(4-fluoro-5-(methylsulfonyl)-2-(piperidin-2-yl)phenyl)sulfamoyl)benzoic Acid Hydrochloride] |
| > 7.00 | O=C(O)c1ccc(C2CC2)c(S(=O)(=O)Nc2cc(C(F)(F)F)c(Cl)cc2C2CCCCN2)c1 (stereo not shown) [Example 26, 3-(N-(4-chloro-2-(piperidin-2-yl)-5-(trifluoromethyl)phenyl)sulfamoyl)-4-cyclopropylbenzoic Acid] |
| > 7.00 | CS(=O)(=O)c1cc(NS(=O)(=O)c2cc(C(=O)O)ccc2C2CC2)c(C2CCCCN2)cc1Cl (stereo not shown) [Example 27, 3-(N-(4-chloro-5-(methylsulfonyl)-2-(piperidin-2-yl)phenyl)sulfamoyl)-4-cyclopropylbenzoic Acid Hydrochloride] |
| > 7.00 | O=C(O)c1ccc(C2CC2)c(S(=O)(=O)Nc2cc(-c3ccns3)ccc2C2CCCCN2)c1 (stereo not shown) [Example 28, 4-cyclopropyl-3-(N-(5-(isothiazol-5-yl)-2-(piperidin-2-yl)phenyl)sulfamoyl)benzoic Acid] |
| > 7.00 | O=C(O)c1cc(F)c(C2CC2)c(S(=O)(=O)Nc2cc(C(F)(F)F)ccc2C2CCCCN2)c1 (stereo not shown) [Example 31, 4-cyclopropyl-3-fluoro-5-(N-(2-(piperidin-2-yl)-5-(trifluoromethyl)phenyl)sulfamoyl)benzoic Acid] |
